Biological target: CD73 (Homo sapiens (Human), UniProt P21589)
Assay: Biochemical Assay (CD73 inhibition, AMP hydrolysis, Malachite Green readout)
Conditions: CD73 0.3208 nM, AMP 15 μM, Tris-HCl pH 7.4, Malachite Green absorbance
Method: Example A1: Biochemical Assay
Assay Reaction Conditions
• Assay Volume: 70 μl • Reaction Volume: 50 μl • CD73: 0.3208 nM • AMP: 15 μM • Assay Buffer: 2 5 mM Tris-HCL, pH 7.4, 0.01% Brij-35, 0.01% BSA, 5 mM MgCl2 Assay Procedure:
Made dose titration of testing compounds in assay buffer, 10 points ½ log titrations in duplicates starting at 100 μM.
Added 25 μl of CD73 to each well for a final concentration of 320 pM.
Incubated at RT for 15 min.
Added 25 μl of AMP to each well for a final concentration of 15 μM.
Incubated at RT for 10 min.
Added 10 μl of Malachite Green Reagent A, incubate at RT for 10 min.
Added 10 μl of Malachite Green Reagent B, incubate at RT for 45 min. […]
The ability of the compounds disclosed herein to inhibit CD73 activity was quantified and the respective IC50 values were determined. Table 1 provides the biochemical IC50 values of compounds disclosed herein.

Chain of CD73 (P21589 27-574): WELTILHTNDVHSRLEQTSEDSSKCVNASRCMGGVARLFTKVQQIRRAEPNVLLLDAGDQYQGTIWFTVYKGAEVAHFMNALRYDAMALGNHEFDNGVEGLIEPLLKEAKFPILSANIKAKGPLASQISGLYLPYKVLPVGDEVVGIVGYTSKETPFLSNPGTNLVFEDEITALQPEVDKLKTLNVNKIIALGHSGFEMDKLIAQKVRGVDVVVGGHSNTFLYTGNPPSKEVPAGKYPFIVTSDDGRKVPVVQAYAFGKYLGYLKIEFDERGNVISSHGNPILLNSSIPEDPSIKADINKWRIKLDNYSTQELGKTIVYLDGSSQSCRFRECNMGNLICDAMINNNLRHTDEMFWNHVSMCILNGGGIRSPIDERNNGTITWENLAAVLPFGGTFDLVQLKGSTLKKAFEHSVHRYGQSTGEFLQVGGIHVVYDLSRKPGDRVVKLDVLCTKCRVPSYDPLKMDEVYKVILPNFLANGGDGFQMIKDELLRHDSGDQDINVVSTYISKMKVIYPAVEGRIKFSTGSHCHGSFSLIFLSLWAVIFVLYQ

Row | SMILES | IC50 [nM]
1 | O=P(O)(O)COC[C@H]1O[C@@H](n2ncc3c(NCc4cccc(Cl)c4)nc(N4CCCC4)nc32)[C@H](O)[C@@H]1O [Example 55, ((((2R,3S,4R,5R)-5-(4-((3-chlorobenzyl)amino)-6-(pyrrolidin-1-yl)-1H-pyrazolo[3,4-d]pyrimidin-1-yl)-3,4-dihydroxytetrahydrofuran-2-yl)methoxy)methyl)phosphonic acid] | > 1000
2 | CNc1nc(NCc2cccc(Cl)c2)c2cnn([C@@H]3O[C@H](COCP(=O)(O)O)[C@@H](O)[C@H]3O)c2n1 [Example 56, ((((2R,3S,4R,5R)-5-(4-((3-chlorobenzyl)amino)-6-(methylamino)-1H-pyrazolo[3,4-d]pyrimidin-1-yl)-3,4-dihydroxytetrahydrofuran-2-yl)methoxy)methyl)phosphonic acid] | > 1000
3 | Nc1nc(Cl)nc2c1cnn2[C@@H]1O[C@H](COCP(=O)(O)O)[C@@H](O)[C@H]1O [Example 57, ((((2R,3S,4R,5R)-5-(4-amino-6-chloro-1H-pyrazolo[3,4-d]pyrimidin-1-yl)-3,4-dihydroxytetrahydrofuran-2-yl)methoxy)methyl)phosphonic acid] | 500 to 1000
4 | O=P(O)(O)COC[C@H]1O[C@@H](n2ncc3c(NCc4cccc(Cl)c4F)nc(Cl)nc32)[C@H](O)[C@@H]1O [Example 58, ((((2R,3S,4R,5R)-5-(6-chloro-4-((3-chloro-2-fluorobenzyl)amino)-1H-pyrazolo[3,4-d]pyrimidin-1-yl)-3,4-dihydroxytetrahydrofuran-2-yl)methoxy)methyl)phosphonic acid] | ≤ 500
5 | CN(Cc1ccccc1Cl)c1nc(Cl)nc2c1nnn2[C@@H]1O[C@H](COCP(=O)(O)O)[C@@H](O)[C@H]1O [Example 59, ((((2R,3S,4R,5R)-5-(5-chloro-7-((2-chlorobenzyl)(methyl)amino)-3H-[1,2,3]triazolo[4,5-d]pyrimidin-3-yl)-3,4-dihydroxytetrahydrofuran-2-yl)methoxy)methyl)phosphonic acid] | ≤ 500
6 | C[C@@H](OCP(=O)(O)O)[C@H]1O[C@@H](n2ncc3c(NCc4ccccc4Cl)nc(Cl)nc32)[C@H](O)[C@@H]1O [Example 60, (((R)-1-((2S,3S,4R,5R)-5-(6-chloro-4-((2-chlorobenzyl)amino)-1H-pyrazolo[3,4-d]pyrimidin-1-yl)-3,4-dihydroxytetrahydrofuran-2-yl)ethoxy)methyl)phosphonic acid] | > 1000
7 | O=P(O)(O)CS(=O)(=O)C[C@H]1O[C@@H](n2ncc3c(NCc4cccc(Cl)c4)nc(Cl)nc32)[C@H](O)[C@@H]1O [Example 61, (((((2S,3S,4R,5R)-5-(6-chloro-4-((3-chlorobenzyl)amino)-1H-pyrazolo[3,4-d]pyrimidin-1-yl)-3,4-dihydroxytetrahydrofuran-2-yl)methyl)sulfonyl)methyl)phosphonic acid] | ≤ 500
8 | O=P(O)(O)CS(=O)(=O)C[C@H]1O[C@@H](n2ncc3c(NCC4CC4)nc(Cl)nc32)[C@H](O)[C@@H]1O [Example 62] | ≤ 500
9 | CC(C)CNc1nc(Cl)nc2c1cnn2[C@@H]1O[C@H](COCP(=O)(O)O)[C@@H](O)[C@H]1O [Example 63, ((((2R,3S,4R,5R)-5-(6-chloro-4-(isobutylamino)-1H-pyrazolo[3,4-d]pyrimidin-1-yl)-3,4-dihydroxytetrahydrofuran-2-yl)methoxy)methyl)phosphonic acid] | ≤ 500
10 | CN(Cc1ccccc1Cl)c1nc(Cl)nc2c1cnn2[C@@H]1O[C@H](COCP(=O)(O)O)[C@@H](O)[C@H]1O [Example 64, ((((2R,3S,4R,5R)-5-(6-chloro-4-((2-chlorobenzyl)(methyl)amino)-1H-pyrazolo[3,4-d]pyrimidin-1-yl)-3,4-dihydroxytetrahydrofuran-2-yl)methoxy)methyl)phosphonic acid] | 500 to 1000
11 | O=P(O)(O)COC[C@H]1O[C@@H](n2ncc3c(OCc4cccc(Cl)c4)nc(Cl)nc32)[C@H](O)[C@@H]1O [Example 65, ((((2R,3S,4R,5R)-5-(6-chloro-4-((3-chlorobenzyl)oxy)-1H-pyrazolo[3,4-d]pyrimidin-1-yl)-3,4-dihydroxytetrahydrofuran-2-yl)methoxy)methyl)phosphonic acid] | > 1000
12 | O=P(O)(O)CS(=O)(=O)C[C@H]1O[C@@H](n2ncc3c(NC4CCCC4)nc(Cl)nc32)[C@H](O)[C@@H]1O [Example 66, (((((2S,3S,4R,5R)-5-(6-chloro-4-(cyclopentylamino)-1H-pyrazolo[3,4-d]pyrimidin-1-yl)-3,4-dihydroxytetrahydrofuran-2-yl)methyl)sulfonyl)methyl)phosphonic acid] | ≤ 500
13 | CC(C)CNc1nc(NCc2cccc(Cl)c2)c2cnn([C@@H]3O[C@H](COCP(=O)(O)O)[C@@H](O)[C@H]3O)c2n1 [Example 67, ((((2R,3S,4R,5R)-5-(4-((3-chlorobenzyl)amino)-6-(isobutylamino)-1H-pyrazolo[3,4-d]pyrimidin-1-yl)-3,4-dihydroxytetrahydrofuran-2-yl)methoxy)methyl)phosphonic acid] | > 1000
14 | O=P(O)(O)COC[C@H]1O[C@@H](n2ncc3c(NCC4CCC4)nc(Cl)nc32)[C@H](O)[C@@H]1O [Example 68, ((((2R,3S,4R,5R)-5-(6-chloro-4-((cyclobutylmethyl)amino)-1H-pyrazolo[3,4-d]pyrimidin-1-yl)-3,4-dihydroxytetrahydrofuran-2-yl)methoxy)methyl)phosphonic acid] | ≤ 500
15 | O=P(O)(O)COC[C@H]1O[C@@H](n2ncc3c(NC[C@@H]4CCCO4)nc(Cl)nc32)[C@H](O)[C@@H]1O [Example 69, ((((2R,3S,4R,5R)-5-(6-chloro-4-((((S)-tetrahydrofuran-2-yl)methyl)amino)-1H-pyrazolo[3,4-d]pyrimidin-1-yl)-3,4-dihydroxytetrahydrofuran-2-yl)methoxy)methyl)phosphonic acid] | ≤ 500
16 | O=P(O)(O)COC[C@H]1O[C@@H](n2ncc3c(NC[C@H]4CCCO4)nc(Cl)nc32)[C@H](O)[C@@H]1O [Example 70, ((((2R,3S,4R,5R)-5-(6-chloro-4-((((R)-tetrahydrofuran-2-yl)methyl)amino)-1H-pyrazolo[3,4-d]pyrimidin-1-yl)-3,4-dihydroxytetrahydrofuran-2-yl)methoxy)methyl)phosphonic acid] | ≤ 500
17 | O=P(O)(O)COC[C@H]1O[C@@H](n2ncc3c(NC[C@@H]4CCOC4)nc(Cl)nc32)[C@H](O)[C@@H]1O [Example 71, ((((2R,3S,4R,5R)-5-(6-chloro-4-((((S)-tetrahydrofuran-3-yl)methyl)amino)-1H-pyrazolo[3,4-d]pyrimidin-1-yl)-3,4-dihydroxytetrahydrofuran-2-yl)methoxy)methyl)phosphonic acid] | ≤ 500
18 | CN(CC1CC1)c1nc(Cl)nc2c1cnn2[C@@H]1O[C@H](COCP(=O)(O)O)[C@@H](O)[C@H]1O [Example 72, ((((2R,3S,4R,5R)-5-(6-chloro-4-((cyclopropylmethyl)(methyl)amino)-1H-pyrazolo[3,4-d]pyrimidin-1-yl)-3,4-dihydroxytetrahydrofuran-2-yl)methoxy)methyl)phosphonic acid] | ≤ 500
19 | O=P(O)(O)COC[C@H]1O[C@@H](n2ncc3c(NC4CCOCC4)nc(Cl)nc32)[C@H](O)[C@@H]1O [Example 73, ((((2R,3S,4R,5R)-5-(6-chloro-4-((tetrahydro-2H-pyran-4-yl)amino)-1H-pyrazolo[3,4-d]pyrimidin-1-yl)-3,4-dihydroxytetrahydrofuran-2-yl)methoxy)methyl)phosphonic acid] | ≤ 500
20 | CC(C)Nc1nc(Cl)nc2c1cnn2[C@@H]1O[C@H](COCP(=O)(O)O)[C@@H](O)[C@H]1O [Example 74, ((((2R,3S,4R,5R)-5-(6-chloro-4-(isopropylamino)-1H-pyrazolo[3,4-d]pyrimidin-1-yl)-3,4-dihydroxytetrahydrofuran-2-yl)methoxy)methyl)phosphonic acid] | ≤ 500
21 | O=P(O)(O)COC[C@H]1O[C@@H](n2ncc3c(Nc4ccccc4)nc(Cl)nc32)[C@H](O)[C@@H]1O [Example 75, ((((2R,3S,4R,5R)-5-(6-chloro-4-(phenylamino)-1H-pyrazolo[3,4-d]pyrimidin-1-yl)-3,4-dihydroxytetrahydrofuran-2-yl)methoxy)methyl)phosphonic acid] | ≤ 500
22 | O=P(O)(O)COC[C@H]1O[C@@H](n2ncc3c(NC4CC4)nc(Cl)nc32)[C@H](O)[C@@H]1O [Example 76, ((((2R,3S,4R,5R)-5-(6-chloro-4-(cyclopropylamino)-1H-pyrazolo[3,4-d]pyrimidin-1-yl)-3,4-dihydroxytetrahydrofuran-2-yl)methoxy)methyl)phosphonic acid] | ≤ 500
23 | CCC(CC)Nc1nc(Cl)nc2c1cnn2[C@@H]1O[C@H](COCP(=O)(O)O)[C@@H](O)[C@H]1O [Example 78, ((((2R,3S,4R,5R)-5-(6-chloro-4-(pentan-3-ylamino)-1H-pyrazolo[3,4-d]pyrimidin-1-yl)-3,4-dihydroxytetrahydrofuran-2-yl)methoxy)methyl)phosphonic acid] | ≤ 500
24 | O=P(O)(O)COC[C@H]1O[C@@H](n2ncc3c(NC4CCC4)nc(Cl)nc32)[C@H](O)[C@@H]1O [Example 79, ((((2R,3S,4R,5R)-5-(6-chloro-4-(cyclobutylamino)-1H-pyrazolo[3,4-d]pyrimidin-1-yl)-3,4-dihydroxytetrahydrofuran-2-yl)methoxy)methyl)phosphonic acid] | ≤ 500
